Measured values from patent US20260212953A1, “An Integrative Framework to Identify Therapeutic Molecules for Treating Preterm Birth” (The Regents of the University of California, priority 2023, published 2026).
Entries after “also recorded” stand apart in the source; their conditions may differ.

How the values were obtained:
[1] = tested on: primary human uterine smooth muscle cells (HUtSMC); assay: Collagen gel contraction assay; assay type: cell-based; conditions: for effect on HUtSMC contraction, contractile state stimulated by oxytocin: 100 nM oxytocin, OXY+DMSO as control; for effect on HUtSMC contraction, quiescent state: PBS+DMSO as control; for reduction of oxytocin-induced myometrial contractility: on average over the four named pre-clinical drugs
Text: We performed experiments to determine the functional roles of the small molecules in regulating labor timing. Because labor onset is hallmarked by muscle contraction in the uterus, we asked whether these small molecules could alter smooth muscle contraction in the uterus. We performed collagen gel contraction assays on primary human uterine smooth muscle cells (HUtSMC) (Ying et al., 2015) to examine the modes of action of the top 9 candidate drugs from our prediction (FIG. 5D). For each drug, we tested its effect on modulating HUtSMC contractility in stimulated (by oxytocin to mimic labor-like phenotypes) and quiescent states by treating cells with oxytocin and vehicle, respectively. In either condition, we determined the pharmacological effects of our identified compounds on cellular contraction (each with at least 8 replicates).
Primary Human Uterine Smooth Muscle Cells (HUISMC) were purchased from PromoCells (Cat #C-12575, Fisher Scientific, MA). Collagen gel contraction assays were performed following (Kita et al., 2008; Ying et al., 2015) with modifications. Briefly, 150 ul of collagen (Cat #5074, SigmaAldrich) was added to each well in a 48-well plate. 80,000 HUtSMC suspension in 300 ul Smooth Muscle Cell Growth Basal Medium (Lonza #CC-3181) were seeded to each well after collagen polymerization for an hour. The cells were then treated with either testing compounds or DMSO in the presence of 100 nM oxytocin or PBS control. We carefully detached the collagen from the wells by tips after 1 hour incubation at 37° C., and fixed the cells with 4% paraformaldehyde in PBS for 30 minutes after 18 hours to ensure the equivalent culture durations for all groups before imaging. We captured bright-field images with microscope systems (AmScope, Irvine, CA), and measured the gel diameters in the captured images by ImageJ where the fold changes to no cell control were taken for statistical analysis. At least three biological replicates were performed for each compound, and technically triplicates were included in each biological replicate. Information about small molecules in the study could be found in Table 4.

[2] = tested on: preterm labor; conditions: chronic treatment; cited from earlier work
[3] = tested on: recurrent preterm labor; assay: Weekly 17-OHPC injections in women with previous spontaneous preterm labor (longitudinal cohort); assay type: in vivo, human; conditions: number among 48 study participants; 250 mg weekly i.m., 16 to 36 weeks of gestation
Description: We performed a longitudinal patient recruitment in Alabama. The study involved 48 study participants who had previous history of spontaneous preterm labor (Supplementary Table 5 for patient information). All women admitted to the study were with singleton pregnancy and received weekly intramuscular injections of Makena 17-OHPC 250 mg beginning at 16 weeks until 36 weeks of gestation. Among the 48 study participants, 28 were considered responders to the treatment and delivered at term, whereas the remaining 20 were considered non-responders and had spontaneous preterm birth after the treatment. We acknowledged the possibility that those considered to be responders might include individuals who delivered at term owing to other reasons and not affected by the treatment. However, if we could observe genetic factors indeed differentiating the two groups, especially those involved in progesterone signaling, the observation then should be explained by progestin treatment.
We performed longitudinal recruitment of 48 women in Alabama who had previous history of spontaneous preterm labor. All women admitted to the study were with singleton pregnancy and received weekly intramuscular injections of Makena OHP 250 mg beginning at 16 weeks until 36 weeks of gestation. This study was approved by Stanford Institutional Review Board (IRB #21956). […]

[4] = tested on: primary myometrial cell cultures; assay: RNA-Seq of primary myometrial cell cultures treated with FSK or IL-1B (Stanfield et al., 2019a); assay type: cell-based, human; conditions: published RNA-Seq data re-examined; P=0.68
Text: Performing functional enrichment analysis, we observed that the 69 Group I genes were highly enriched for functions associated with the regulation of muscle contraction (FDR=8.10e-4), more specifically with relaxation of muscle (FDR=2.71e-3, FIG. 3H). This explained their elevated expression prior to labor as well as their down-regulation upon delivery to promote muscle contractility.
Note that inflammatory factors are known to promote muscle contractility during labor (Khanjani et al., 2011; Mendelson et al., 2019), explaining the down-regulation of Group II genes before labor and their activation during labor. We examined primary myometrial cell cultures treated with IL-1B to mimic tissue-level inflammation at the labor onset (Stanfield et al., 2019a). […] In fact, Group-II genes included a key inflammatory activators AP-1 (with its subunits JUN and FOS), which play a central role in regulating smooth muscle contractility proteins at labor onset (Mendelson et al., 2019).
We downloaded normalized FPKM gene expression matrix of RNA-seq data (GSE134896 and GSE163773) (Ackerman et al., 2021; Stanfield et al., 2019a) from GEO for primary myometrial cell cultures following treatment with Forskolin and Interleukin-1B, and for primary myometrium samples harvested from 31 women at labor. […]

[5] = tested on: HUtSMCs; assay: Cell viability of HUtSMCs treated with different concentrations of RKI-1447; assay type: cell-based, human
Text: These experimental data provided quantitative guidance on its potential clinical deployment. […] As a potent inhibitor of the Rho-kinases ROCKI/II, RKI-1447 has been mainly investigated for therapeutic effects on cancer (Dyberg et al., 2019; Li et al., 2020; Patel et al., 2012), glaucoma (Cush et al., 1995), and nonalcoholic fatty liver disease (Wang and Jiang, 2020), with less focus on putative effects on modulating uterine contractility. […] These observations provided mechanistic basis for our drug discovery and experimental observations (FIGS. 5E and 5F).

[6] = tested on: uterine contractility; conditions: in vivo; cited from earlier work
[7] = tested on: smooth muscle cells in other organs; conditions: literature curation; cited from earlier work
[8] = tested on: preterm birth; conditions: daily low-dose; women of their first pregnancies; cited from earlier work

## N#CC(=C(/N)Sc1ccccc1N)/C(C#N)=C(\N)Sc1ccccc1N [U0126]
[1]
  effect on myometrial cell contractility in either quiescent or contractile state: absence of signal
[2]
  efficacy in a rat model of preterm labor: demonstrated efficacy

## CCCCCC(=O)O[C@]1(C(C)=O)CC[C@H]2[C@@H]3CCC4=CC(=O)CC[C@]4(C)[C@H]3CC[C@@]21C [17-OHPC, 17-hydroxyprogesterone caproate]
[3]
  non-responders (spontaneous preterm birth after the treatment): 20
  responders (delivered at term): 28

## IL-1B: cytokine used to mimic tissue-level inflammation at the labor onset
[4]
  response of Group II genes to treatment: overall not responsive

## O=C(NCc1cccc(O)c1)Nc1nc(-c2ccncc2)cs1 [RKI-1447]
[1]; 0 to 10 μM, quiescent (PBS) and contractile (OXY) states
  dose-response relationship on myometrial smooth muscle relaxation: dose-dependent effects on myometrial smooth muscle relaxation
[1]
  effect on HUtSMC contraction, contractile state stimulated by oxytocin: attenuated myometrial contraction; also recorded: attenuated oxytocin-induced myometrial contractility
  effect on myometrial cell contractility in either quiescent or contractile state: altered myometrial contractility
  effect on HUtSMC contraction, quiescent state: strongly reduced the contraction
[1]; both states
  effect on myometrial cell contractility in the presence and absence of oxytocin: the only drug to prevent myometrial cell contractility in the presence and absence of oxytocin
[5]; HUtSMCs
  concentration at emergence of cellular toxicity: 50 µM
[5]; over a wide dose-range
  effect on cell viability: little effect on cell viability
[6]
  effect on uterine contractility in rats: attenuated uterine contractility
[7]
  side effects on smooth muscle cells in other organs, particularly cardiotoxicity: minimal effects

## COc1cccc(-c2cc(=O)c3ccccc3o2)c1N [PD-98059]
[1]
  effect on myometrial cell contractility in either quiescent or contractile state: absence of signal
[2]
  efficacy in a rat model of preterm labor: demonstrated efficacy

## Brc1c(Br)c(Br)c2[nH]nnc2c1Br [4,5,6,7-tetrabromobenzotriazole]
[1]
  effect on HUtSMC contraction, contractile state stimulated by oxytocin: attenuated myometrial contraction
  effect on myometrial cell contractility in either quiescent or contractile state: altered myometrial contractility
  reduction of oxytocin-induced myometrial contractility: 15.73%
[1]; listed as TBBt
  effect on HUtSMC contraction, contractile state stimulated by oxytocin: attenuated oxytocin-induced myometrial contractility

## C[S+]([O-])c1ccc(-c2nc(-c3ccncc3)c(-c3ccc(F)cc3)[nH]2)cc1 (centres unmarked) [SB-203580]
[1]
  effect on HUtSMC contraction, contractile state stimulated by oxytocin: increased the contraction
  effect on myometrial cell contractility in either quiescent or contractile state: altered myometrial contractility
  effect on HUtSMC contraction, quiescent state: significantly induced myometrial cell contraction

## CC(=O)Oc1ccccc1C(=O)O [aspirin]
[8]
  reduction of the risk of early preterm birth (before 34 gestational weeks): 25%
  reduction of the risk of preterm birth (before 37 gestational weeks): 11%

## O=c1cc(N2CCOCC2)oc2c(-c3ccccc3)cccc12 [LY294002]
[1]
  reduction of oxytocin-induced myometrial contractility: 15.73%

## CN1CCN(Cc2ccc(-c3cnc4[nH]cc(-c5ccc6[nH]ccc6c5)c4c3)cc2)CC1 [URMC-099]
[1]
  effect on HUtSMC contraction, contractile state stimulated by oxytocin: attenuated myometrial contraction; also recorded: attenuated oxytocin-induced myometrial contractility
  effect on myometrial cell contractility in either quiescent or contractile state: altered myometrial contractility
  reduction of oxytocin-induced myometrial contractility: 15.73%

## [H]/N=C(/N)SCCCn1cc(C2=C(c3cn(C)c4ccccc34)C(=O)NC2=O)c2ccccc21 [bisindolylmaleimide-ix]
[1]
  effect on HUtSMC contraction, contractile state stimulated by oxytocin: attenuated myometrial contraction; also recorded: attenuated oxytocin-induced myometrial contractility
  effect on myometrial cell contractility in either quiescent or contractile state: altered myometrial contractility
  reduction of oxytocin-induced myometrial contractility: 15.73%
